From US20240050428A1 (Cullgen (Shanghai), Inc., priority 2020, published 2024) come the findings set out here.

One test relates to MOLM-13 cells. The test can be described thus: Cell viability assay (CellTiter-Glo) in MOLM-13 cells, alone or with gilteritinib. The format is cell-based. To be noted: Homo sapiens, MOLM-13, 72 h, MOLM-13 cells, three days, CellTiter-Glo. Background: In ATP-based viability assays light output follows the ATP content of the culture.
The subject of another test is MV4;11 cells. The experiment in a line: Cell viability assay (CellTiter-Glo) in MV4;11 cells, alone or with gilteritinib. The conditions noted are these: Homo sapiens, MV4-11, 72 h, MV4;11 cells, three days, CellTiter-Glo, read-out: MV4. In kind it is cell-based.
The mark [1] stands for this setting: compound alone (without gilteritinib), read-out: MOLM-13 IC50.
Where [2] appears, read: with gilteritinib 20 nM, read-out: MOLM-13 IC50 gilteritinib.
[3] abbreviates: compound alone (without gilteritinib), 11 IC50.
The mark [4] stands for this setting: with gilteritinib 10 nM, 11 IC50 gilteritinib.
The mark [5] stands for this setting: compound with gilteritinib 20 nM, read-out: MOLM-13 IC50 gilteritinib.
The mark [6] stands for this setting: compound with gilteritinib 10 nM, 11 IC50 gilteritinib.

pIC50: −log10 of the molar value. Like-named read-outs stand apart in the source and are kept apart here.

As for `O=C1CCC(N2C(=O)c3ccc(NCCCC4CC(n5cc(-c6cnc7ccc(N8CCOCC8)cc7n6)cn5)C4)cc3C2=O)C(=O)N1` (stereo not shown) [GS-173, 2-(2,6-Dioxopiperidin-3-yl)-5-((3-(3-(4-(7-morpholinoquinoxalin-2-yl)-1H-pyrazol-1-yl)cyclobutyl)propyl)amino)isoindoline-1,3-dione], the pIC50 in the test with MOLM-13 cells (setting [1]) is 7.00 to 8.00; in the test on MOLM-13 cells (setting [2]), greater than 8.00; in the test with MV4;11 cells (setting [3]), 7.00 to 8.00; in the test with MV4;11 cells (setting [4]), 7.00 to 8.00.

Turning to `O=C1CCC(N2Cc3cc(OCCCCC(=O)N4CCC(n5cc(-c6cnc7ccccc7n6)cn5)CC4)ccc3C2=O)C(=O)N1` (stereo not shown) [GS-484, 3-(1-oxo-5-((5-oxo-5-(4-(4-(quinoxalin-2-yl)-1H-pyrazol-1-yl)piperidin-1-yl)pentyl)oxy)isoindolin-2-yl)piperidine-2,6-dione], the pIC50 in the test on MOLM-13 cells (setting [1]) was 6.00 to 7.00; in the test with MOLM-13 cells (setting [5]), 6.00 to 7.00; in the test on MV4;11 cells (setting [3]) it was less than 6.00; in the test on MV4;11 cells (setting [6]), 6.00 to 7.00.

In the case of `O=C1CCC(N2C(=O)c3ccc(NCCCCC(=O)N4CCC(n5cc(-c6cnc7ccc(C8=CCNCC8)cc7n6)cn5)CC4)cc3C2=O)C(=O)N1` (stereo not shown) [GS-544, 2-(2,6-Dioxopiperidin-3-yl)-5-((5-oxo-5-(4-(4-(7-(1,2,3,6-tetrahydropyridin-4-yl)quinoxalin-2-yl)-1H-pyrazol-1-yl)piperidin-1-yl)pentyl)amino)isoindoline-1,3-dione], the pIC50 was 6.00 to 7.00 with MOLM-13 cells (setting [1]), greater than 8.00 with MOLM-13 cells (setting [5]), 6.00 to 7.00 in the test with MV4;11 cells (setting [3]) and greater than 8.00 with MV4;11 cells (setting [6]).

In the case of `O=C1CCC(N2C(=O)c3ccc(NC[C@H]4C[C@H](n5cc(-c6cnc7c(N8CC(O)C8)cccc7n6)c(C6CC6)n5)C4)cc3C2=O)C(=O)N1` (stereo partly shown) [GS-610], the pIC50 with MOLM-13 cells (setting [1]), with MOLM-13 cells (setting [5]), in the test with MV4;11 cells (setting [3]) and in the test with MV4;11 cells (setting [6]) was greater than 8.00 throughout.

With `Cn1cccc(-c2cn([C@H]3C[C@H](CNc4ccc5c(c4)C(=O)N(C4CCC(=O)NC4=O)C5=O)C3)nc2C2CC2)c1=O` (stereo partly drawn) [GS-465, 5-(((trans-3-(3-cyclopropyl-4-(1-methyl-2-oxo-1,2-dihydropyridin-3-yl)-1H-pyrazol-1-yl)cyclobutyl)methyl)amino)-2-(2,6-dioxopiperidin-3-yl)isoindoline-1,3-dione], the pIC50 with MOLM-13 cells (setting [1]) is less than 6.00; in the test on MOLM-13 cells (setting [5]), 7.00 to 8.00; in the test with MV4;11 cells (setting [3]) it was less than 6.00; with MV4;11 cells (setting [6]), 6.00 to 7.00.

On to `O=C1CCC(N2C(=O)c3ccc(NCCC[C@H]4C[C@H](n5cc(-c6ncccn6)cn5)C4)cc3C2=O)C(=O)N1` (stereo partly drawn) [GS-242, 2-(2,6-Dioxopiperidin-3-yl)-5-((3-(trans-3-(4-(pyrimidin-2-yl)-1H-pyrazol-1-yl)cyclobutyl)propyl)amino)isoindoline-1,3-dione], for which the pIC50 was less than 6.00 in the test with MOLM-13 cells (setting [1]), 6.00 to 7.00 with MOLM-13 cells (setting [2]), less than 6.00 in the test with MV4;11 cells (setting [3]) and 6.00 to 7.00 with MV4;11 cells (setting [4]).

Turning to `O=C1CCC(N2Cc3c(Nc4ccnc(NCC(=O)N5CCC(n6cc(-c7cnc8ccccc8n7)cn6)CC5)n4)cccc3C2=O)C(=O)N1` (stereo not shown) [GS-091, 3-(1-Oxo-4-((2-((2-oxo-2-(4-(4-(quinoxalin-2-yl)-1H-pyrazol-1-yl)piperidin-1-yl)ethyl)amino)pyrimidin-4-yl)amino)isoindolin-2-yl)piperidine-2,6-dione], the pIC50 in the test with MOLM-13 cells (setting [1]), with MOLM-13 cells (setting [2]), in the test on MV4;11 cells (setting [3]) and with MV4;11 cells (setting [4]) was less than 6.00 in each case.

For `CN1CCN(c2ccc3ncc(-c4cnn(CCCCCCNc5ccc6c(c5)C(=O)N(C5CCC(=O)NC5=O)C6=O)c4)nc3c2)CC1` (stereo not shown) [GS-529, 2-(2,6-Dioxopiperidin-3-yl)-5-((6-(4-(7-(4-methylpiperazin-1-yl)quinoxalin-2-yl)-1H-pyrazol-1-yl)hexyl)amino)isoindoline-1,3-dione], the pIC50 with MOLM-13 cells (setting [1]) was less than 6.00; in the test with MOLM-13 cells (setting [5]) it was greater than 8.00; in the test on MV4;11 cells (setting [3]), 7.00 to 8.00; with MV4;11 cells (setting [6]) it was greater than 8.00.

For the compound `CN1CC2CC1CN2c1ccc2ncc(-c3cn([C@H]4C[C@H](CCCNc5ccc6c(c5)C(=O)N(C5CCC(=O)NC5=O)C6=O)C4)nc3C3CC3)nc2c1` (stereo partly drawn) [GS-594, 5-((3-(trans-3-(3-Cyclopropyl-4-(7-((1R,4R)-5-methyl-2,5-diazabicyclo[2.2.1]heptan-2-yl)quinoxalin-2-yl)-1H-pyrazol-1-yl)cyclobutyl)propyl)amino)-2-(2,6-dioxopiperidin-3-yl)isoindoline-1,3-dione], the pIC50 in the test with MOLM-13 cells (setting [1]) is 6.00 to 7.00; with MOLM-13 cells (setting [5]) it was greater than 8.00; in the test on MV4;11 cells (setting [3]), 7.00 to 8.00; with MV4;11 cells (setting [6]) it was greater than 8.00.

Consider `O=C1CCC(N2C(=O)c3ccc(NC[C@H]4C[C@H](n5cc(-c6cnccn6)c(C6CC6)n5)C4)cc3C2=O)C(=O)N1` (stereo partly drawn) [GS-596, 5-(((trans-3-(3-Cyclopropyl-4-(pyrazin-2-yl)-1H-pyrazol-1-yl)cyclobutyl)methyl)amino)-2-(2,6-dioxopiperidin-3-yl)isoindoline-1,3-dione], for which the pIC50 is less than 6.00 with MOLM-13 cells (setting [1]), 6.00 to 7.00 with MOLM-13 cells (setting [5]), 6.00 to 7.00 in the test with MV4;11 cells (setting [3]) and 6.00 to 7.00 with MV4;11 cells (setting [6]).

In the case of `CN1CCC(c2ccc3ncc(-c4cnn(CCCCCCNc5ccc6c(c5)C(=O)N(C5CCC(=O)NC5=O)C6=O)c4)nc3c2)CC1` (stereo not shown) [GS-548, 2-(2,6-Dioxopiperidin-3-yl)-5-((6-(4-(7-(1-methylpiperidin-4-yl)quinoxalin-2-yl)-1H-pyrazol-1-yl)hexyl)amino)isoindoline-1,3-dione], the pIC50 is 6.00 to 7.00 in the test on MOLM-13 cells (setting [1]), greater than 8.00 in the test with MOLM-13 cells (setting [5]), 6.00 to 7.00 in the test with MV4;11 cells (setting [3]) and greater than 8.00 in the test with MV4;11 cells (setting [6]).

For `O=C1CCC(N2C(=O)c3ccc(NCCNC(=O)N4CCC(n5cc(-c6cnc7ccccc7n6)cn5)CC4)cc3C2=O)C(=O)N1` (stereo not shown) [GS-149, N-(2-((2-(2,6-dioxopiperidin-3-yl)-1,3-dioxoisoindolin-5-yl)amino)ethyl)-4-(4-(quinoxalin-2-yl)-1H-pyrazol-1-yl)piperidine-1-carboxamide], the pIC50 in the test with MOLM-13 cells (setting [1]) is less than 6.00; in the test on MOLM-13 cells (setting [2]) it was 6.00 to 7.00; with MV4;11 cells (setting [3]) it was less than 6.00; in the test on MV4;11 cells (setting [4]), 6.00 to 7.00.

In the case of `Cc1nn([C@H]2C[C@@H](CCCNc3ccc4c(c3)C(=O)N(C3CCC(=O)NC3=O)C4=O)C2)cc1-c1cnc2ccc(N3CCOCC3)cc2n1` (stereo partly drawn) [GS-221, 2-(2,6-Dioxopiperidin-3-yl)-5-((3-(cis-3-(3-methyl-4-(7-morpholinoquinoxalin-2-yl)-1H-pyrazol-1-yl)cyclobutyl)propyl)amino)isoindoline-1,3-dione], the pIC50 with MOLM-13 cells (setting [1]), in the test with MOLM-13 cells (setting [2]), in the test on MV4;11 cells (setting [3]) and with MV4;11 cells (setting [4]) was greater than 8.00 in each case.

Take `O=C(CN1CCC(n2cc(-c3ccc4ccccc4n3)cn2)CC1)NCCCNc1ccc2c(c1)C(=O)N(C1CCC(=O)NC1=O)C2=O` (stereo not shown) [GS-317, N-(3-((2-(2,6-Dioxopiperidin-3-yl)-1,3-dioxoisoindolin-5-yl)amino)propyl)-2-(4-(4-(quinolin-2-yl)-1H-pyrazol-1-yl)piperidin-1-yl)acetamide]: the pIC50 with MOLM-13 cells (setting [1]) was less than 6.00; in the test with MOLM-13 cells (setting [2]), 6.00 to 7.00; in the test with MV4;11 cells (setting [3]), less than 6.00; in the test with MV4;11 cells (setting [4]), less than 6.00.

On to `CN1CCN(c2ccc3ncc(-c4cnn(C5CC(CCCNc6ccc7c(c6)C(=O)N(C6CCC(=O)NC6=O)C7=O)C5)c4)nc3c2)CC1` (stereo not shown) [GS-172, 2-(2,6-Dioxopiperidin-3-yl)-5-((3-(3-(4-(7-(4-methylpiperazin-1-yl)quinoxalin-2-yl)-1H-pyrazol-1-yl)cyclobutyl)propyl)amino)isoindoline-1,3-dione], for which the pIC50 with MOLM-13 cells (setting [1]) is less than 6.00; in the test on MOLM-13 cells (setting [2]), 6.00 to 7.00; in the test on MV4;11 cells (setting [3]), 6.00 to 7.00; in the test with MV4;11 cells (setting [4]), less than 6.00.

Consider `Cc1cccc2ncc(-c3cnn(CCCCCCNc4ccc5c(c4)C(=O)N(C4CCC(=O)NC4=O)C5=O)c3)nc12` (stereo not shown) [GS-511, 2-(2,6-Dioxopiperidin-3-yl)-5-((6-(4-(8-methylquinoxalin-2-yl)-1H-pyrazol-1-yl)hexyl)amino)isoindoline-1,3-dione], for which the pIC50 in the test on MOLM-13 cells (setting [1]) was 6.00 to 7.00; with MOLM-13 cells (setting [5]), greater than 8.00; with MV4;11 cells (setting [3]) it was 6.00 to 7.00; in the test with MV4;11 cells (setting [6]), 7.00 to 8.00.

For the compound `O=C1CCC(N2C(=O)c3ccc(NC[C@H]4C[C@@H](n5cc(-c6cnc7ccc(N8CCOCC8)cc7n6)cn5)C4)cc3C2=O)C(=O)N1` (stereo partly drawn) [GS-189, 2-(2,6-Dioxopiperidin-3-yl)-5-(((cis-3-(4-(7-morpholinoquinoxalin-2-yl)-1H-pyrazol-1-yl)cyclobutyl)methyl)amino)isoindoline-1,3-dione], the pIC50 is 6.00 to 7.00 with MOLM-13 cells (setting [1]), 6.00 to 7.00 in the test with MOLM-13 cells (setting [2]), 6.00 to 7.00 in the test with MV4;11 cells (setting [3]) and less than 6.00 with MV4;11 cells (setting [4]).

Turning to `O=C1CCC(N2C(=O)c3ccc(NCCCN4CCCC(n5cc(-c6cnc7ccccc7n6)cn5)C4)cc3C2=O)C(=O)N1` (stereo not shown) [GS-347, 2-(2,6-Dioxopiperidin-3-yl)-5-((3-(3-(4-(quinoxalin-2-yl)-1H-pyrazol-1-yl)piperidin-1-yl)propyl)amino)isoindoline-1,3-dione], the pIC50 is less than 6.00 in the test on MOLM-13 cells (setting [1]), 7.00 to 8.00 in the test on MOLM-13 cells (setting [2]), less than 6.00 in the test on MV4;11 cells (setting [3]) and less than 6.00 with MV4;11 cells (setting [4]).

Consider `O=C1CCC(N2C(=O)c3ccc(NCCCCCC(=O)N4CC(Nc5ccccc5)C4)cc3C2=O)C(=O)N1` (stereo not shown) [GS-336, 2-(2,6-Dioxopiperidin-3-yl)-5-((6-oxo-6-(3-(phenylamino)azetidin-1-yl)hexyl)amino)isoindoline-1,3-dione], for which the pIC50 in the test on MOLM-13 cells (setting [1]), in the test on MOLM-13 cells (setting [2]), in the test with MV4;11 cells (setting [3]) and in the test on MV4;11 cells (setting [4]) was less than 6.00 throughout.
